Assay results from US7449315B2, “Bifunctional energy-reversible acyl-compositions” (Cryolife, Inc., priority 2002, dated 2008).

Key:
[1] = target: T1, Human tPA (Activase) (Homo sapiens, UniProt P00750); test: Inhibition and light reactivation of tPA by Rz-NH-CINN-AP inhibitors, S-2288 chromogenic assay; format: biochemical; conditions: for Inhibition after 16 hrs incubation (%): ambient temperature, dark; for Light Reactivation (%): after blue light
T1 construct: purchased Genentech Inc. Lot # E9034A
T1 sequence (P00750 36-562): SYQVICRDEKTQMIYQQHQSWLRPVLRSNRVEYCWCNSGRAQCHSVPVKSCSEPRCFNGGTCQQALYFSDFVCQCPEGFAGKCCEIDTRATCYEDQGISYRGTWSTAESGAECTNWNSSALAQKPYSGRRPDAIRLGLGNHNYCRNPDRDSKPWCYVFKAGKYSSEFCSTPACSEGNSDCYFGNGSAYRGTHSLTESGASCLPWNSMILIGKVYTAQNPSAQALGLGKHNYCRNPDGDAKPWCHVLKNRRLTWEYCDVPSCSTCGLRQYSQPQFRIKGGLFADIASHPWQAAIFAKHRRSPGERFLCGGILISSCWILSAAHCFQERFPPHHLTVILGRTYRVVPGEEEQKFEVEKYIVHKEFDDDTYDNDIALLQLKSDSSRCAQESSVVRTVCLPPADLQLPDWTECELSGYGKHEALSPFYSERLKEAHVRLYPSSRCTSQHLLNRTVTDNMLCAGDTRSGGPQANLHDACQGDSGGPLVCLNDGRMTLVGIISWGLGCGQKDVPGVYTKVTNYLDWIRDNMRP
Method: (§1) R is -tBOC, —H2^+, or mPEG5000. Human thrombin was modified with R—NH-CINN-AP inhibitors as follows: Thrombin (600 units; ˜3.5 nmol) in 50 mM sodium citrate buffer, 3 mM CaCl2, 7% kollidon, pH 7.0, was reacted with 3.5-35 nmol of the R—N-CINN-AP inhibitor for 12-18 hours at ambient temperature in the dark. Thrombin activities were measured under red light (“dark”) and after exposure to 10 seconds of blue light from a dental light and were assayed using S-2238 (diaPharma) at 30° C. Percentage inhibition was calculated as 100—dark activity. Dark activity was calculated as [activitydark÷activitycontrol]×100. Light reactivation was calculated as activitylight÷activtycontrol. The following are typical results.
R2 is -tBOC, —-H2^+, or mPEG5000. The procedures of Examnple 4 was repeated except that Human tPA (Activase, Genentech Inc. Lot # E9034A) was modified with Rz—NH-CINN-AP inhibitors in place of thrombin. The reactions were carried out as follows: tPA (0.83 nmol) in 10 mM tris-HCl, 130 mM NaCl, pH 7.4 was reacted with 0.8 3-8.3 nmoles of the R—NH CINN-AP inhibitors for 12-18 hours at ambient temperature in the dark. Activities were calculated as for Example 4, using S-2288 (diaPharna).

[2] = target: Human thrombin (Homo sapiens, UniProt P00734); test: Inhibition and light reactivation of thrombin by R-NH-CINN-AP inhibitors, S-2238 chromogenic assay; format: biochemical; conditions: for Inhibition after 16 Hrs Incubation (%): ambient temperature, dark; for Light Reactivation (%): after 10 seconds of blue light, activity light/activity control
Method: as §1

[3] = Solubility in aqueous solution after removal of t-BOC; format: physicochemical; conditions: neutralized to pH 7.0
Method: 3-[2-hydroxy-4-(ethyl)(2-tert-butyloxycarbamidoethyl)amino]phenyl-2-methylpropenoic acid, 4-aminoiminophenyl ester, HCl salt (15; 12 mg, 25 μmmol) was suspended in 1.2 ml of 3N HCl and mixed by inversion for 3 hours at ambient temperature to release the t-BOC group and generate 3-[2-hydroxy-4-(ethyl) aminoethyl)amino]phenyl-2-methylpropenoic acid, 4-aminoiminophenyl ester, HCl salt (16; N-CINN-AP). After 3 hours, the reaction was neutralized with 3N NaOH to give a final pH of 7.0.

Inhibition after 16 hrs incubation (%) ([1]; inhibitor excess 5×) | Light Reactivation (%) ([1]; inhibitor excess 10×) | Inhibition after 16 hrs incubation (%) ([1]; inhibitor excess 10×) | Inhibition after 16 Hrs Incubation (%) ([2]; inhibitor excess 1×) | Inhibition after 16 Hrs Incubation (%) ([2]; inhibitor excess 5×) | Light Reactivation (%) ([2]; inhibitor excess 10×) | Inhibition after 16 Hrs Incubation (%) ([2]; inhibitor excess 10×) | Solubility (in words) [3] | SMILES | tPA inhibition (in words) ([1]; Table 2) | Thrombin inhibition (in words) ([2]; summary of Table 1)
95 | 87 | 95 | 94 | 98 | 72 | 97 |  | CCN(CCNC(=O)OC(C)(C)C)c1ccc(C=C(C)C(=O)Oc2ccc(C(=N)N)cc2)c(O)c1.Cl [#15, 3-[2-hydroxy-4-(ethyl)(2-tert-butyloxycarbamidoethyl)amino]-phenyl-2-methylpropenoic acid, 4-aminoiminophenyl ester, HCl salt] |  | 
78 | 78 | 88 | 21 | 70 | 64 | 96 | soluble in aqueous solution | CCN(CCN)c1ccc(C=C(C)C(=O)Oc2ccc(C(=N)N)cc2)c(O)c1.Cl [#16] | less effective inhibitor at lower molar ratios | less effective inhibitor at lower molar ratios
